Consider 3 substances from patent US8575307B2, “Protein kinase C inhibitors for prevention of insulin resistance and type 2 diabetes” (Hadasit Medical Research Services & Development Ltd., priority 2005, dated 2013).

For experiment [1], the system named is nutritionally induced type 2 diabetes in Psammomys obesus. The experiment in a line: Nutritionally induced diabetes in Psammomys obesus model: whole blood glucose by glucometer. The experiment is classed as in vivo. To be noted: diabetic Psammomys on high energy diet; three intraperitoneal injections of 10 mg/kg, 5 days apart. The procedure: Psammomys obesus gerbils males or females weighing 160-200 g in the fed state were used. […] The animals were then injected intraperitoneally with 10 mg/kg of the peptide dissolved in dimethylsulphoxide solvent (or with solvent alone in controls). […] Whole blood glucose was measured by a glucometer on a minidroplet of blood withdrawn from the end of the tail. Three injections were given 5 days apart and after 14 days or earlier the high blood glucose levels of the animals became normal, the controls remained at the 300-400 mg/dl level. The normal level lasted at least for 3 to 5 days after the last injection. […] The line with asterisk represents the control animal. Other lines are those of individual injected animals.

In experiment [2] the test system is glucose transporter GLUT4 protein. The experiment can be described thus: Immunoblot of GLUT4 protein amount in muscle lysates. The experiment is classed as in vivo, Psammomys obesus. To be noted: treated vs non-treated animal. The procedure: (§1) For assaying the insulin signaling pathway components and electronmicroscopic examination of the pancreatic beta cells, animals were killed by decapitation in the fed state in the morning three days after the third intraperitoneal peptide injection. Blood was collected and serum insulin levels was determined by radioimmunoassay, using anti-human antibodies. The gastrocnemius muscles from both legs were excised, immediately frozen in liquid nitrogen, and then stored at −80° C.
(§2) Immunoblot analysis of insulin signaling molecules were performed using muscle homogenates prepared in a homogenization buffer that contained 20 mmol/l HEPES, 8 mmol/l EDTA, 0.2 mmol/l Na3VO4, 10 mmol/l Na4P2O7, 2.5 mmol/l, 2 mM phenylmathylsulfonyl fluorid, 160 mmol/l NaF, 2 mmol/l DCA, 1% Triton X-100, 1% protease inhibitor cocktail and 1% phaphatase inhibitor cocktail (Sigma®) pH 7.4. Equal amount of cell lysate were dissolved in Laemmli buffer and subjected to SDS-PAGE gel separation. The separated proteins were transferred to nitrocellulose membranes. […] All protein data were quantified by densitometry. […]
(§3) The extent of phosphorylation of the components of the insulin signaling pathway (signal proteins) in the muscle lysates of the treated and non-treated animals “ ” was investigated. FIG. 6 presents the relative extent of serine phosphorylation of IRS by PKC as determined by immunobloting with a specific antibody. […]
In general terms: In western blotting, separated proteins are transferred to a membrane and probed.

The test system of experiment [3] is serine phosphorylation of IRS by PKC. The experiment can be described thus: Immunoblot of serine phosphorylation of IRS in muscle lysates. To be noted: treated vs non-treated animal. The experiment is classed as in vivo, Psammomys obesus. The procedure: as §1, §2, §3
The test system of a further experiment is pancreatic beta cells. The experiment can be described thus: Histology (hematoxylin-eosin) and insulin immunostaining of pancreatic beta cells. The experiment is classed as in vivo, Psammomys obesus. Particulars: diabetic Psammomys, peptide treatment for 14 days. As to the method:
For assaying the insulin signaling pathway components and electronmicroscopic examination of the pancreatic beta cells, animals were killed by decapitation in the fed state in the morning three days after the third intraperitoneal peptide injection. Blood was collected and serum insulin levels was determined by radioimmunoassay, using anti-human antibodies. The gastrocnemius muscles from both legs were excised, immediately frozen in liquid nitrogen, and then stored at −80° C. The electronmicroscopic examination of pancreatic beta cells was performed on slices of pancreatic paraffin blocks according to the method of Joins et al., 2002, Virchovs Arch 440: 63-69. The histologic and immunostaining properties of the pancreatic beta cells in diabetic Psammomys gerbils injected with peptide 12 were investigated in order to check whether the beta cells are protected from hyperglycemia. […] FIGS. 5A and 5B describe representative hematoxylin-eosin stained beta cell and insulin immunostained beta cells in diabetic and treated animals.

The test system of another experiment is PKB/AKT. The experiment can be described thus: Immunoblot of serine phosphorylation of PKB/AKT in muscle lysates. The experiment is classed as in vivo, Psammomys obesus. To be noted: treated vs non-treated animal. The procedure: as §1, §2, §3

Square brackets hold non-standard residues; d marks the D form. * marks the point of attachment. Myristoyl = CCCCCCCCCCCCCC(=O)*

With “myristoyl-Gly-Asn-Leu-Met-Phe-Gln-Ile-Gln-Arg-Ser-Arg-Lys-Phe-amide (Myristoyl-GNLMFQIQRSRKF-NH2; SMILES CCCCCCCCCCCCCC(=O)NCC(=O)N[C@@H](CC(N)=O)C(=O)N[C@@H](CC(C)C)C(=O)N[C@@H](CCSC)C(=O)N[C@@H](Cc1ccccc1)C(=O)N[C@@H](CCC(N)=O)C(=O)N[C@H](C(=O)N[C@@H](CCC(N)=O)C(=O)N[C@@H](CCCNC(=N)N)C(=O)N[C@@H](CO)C(=O)N[C@@H](CCCNC(=N)N)C(=O)N[C@@H](CCCCN)C(=O)N[C@@H](Cc1ccccc1)C(N)=O)[C@@H](C)CC) [peptide 16, myristoylated peptide analog derived from the αD region of PKC-ε]”, the “hypoglycemic effect (blood glucose)” value in experiment [1] was “hypoglycemic effect”.

In the case of “myristoyl-Gly-Met-Ala-(D)Lys-Gln-Pro-Pro-Phe-amide (Myristoyl-GMA[dK]QPPF-NH2; SMILES CCCCCCCCCCCCCC(=O)NCC(=O)N[C@@H](CCSC)C(=O)N[C@@H](C)C(=O)N[C@H](CCCCN)C(=O)N[C@@H](CCC(N)=O)C(=O)N1CCC[C@H]1C(=O)N1CCC[C@H]1C(=O)N[C@@H](Cc1ccccc1)C(N)=O) [peptide 7, myristoylated peptide analog derived from the HJ region of PKC-ε]”, in experiment [1], the “hypoglycemic effect (blood glucose)” value is listed as “hypoglycemic effect”.

“myristoyl-Gly-Phe-Gln-Ile-Gln-Arg-Ser-Arg-Lys-Phe-Asn-amide (Myristoyl-GFQIQRSRKFN-NH2; SMILES CCCCCCCCCCCCCC(=O)NCC(=O)N[C@@H](Cc1ccccc1)C(=O)N[C@@H](CCC(N)=O)C(=O)N[C@H](C(=O)N[C@@H](CCC(N)=O)C(=O)N[C@@H](CCCNC(=N)N)C(=O)N[C@@H](CO)C(=O)N[C@@H](CCCNC(=N)N)C(=O)N[C@@H](CCCCN)C(=O)N[C@@H](Cc1ccccc1)C(=O)N[C@@H](CC(N)=O)C(N)=O)[C@@H](C)CC) [peptide 12, myristoylated peptide analog derived from the αD region of PKC-ε]”: the “hypoglycemic effect (blood glucose)” value in experiment [1] is recorded as “hypoglycemic effect”. For the same substance, the “relative amount of the glucose transporter GLUT4 protein” value in experiment [2] is “elevated”. Moreover, in experiment [3], the “relative extent of serine phosphorylation of IRS by PKC” value was “much lower”. Further, the “immunostainable insulin content of the pancreatic beta cells” value in the experiment with pancreatic beta cells was “replenished”. In the experiment on pancreatic beta cells (hematoxylin-eosin staining), the beta cell structure result was “markedly improved”. Moreover, the “relative extent of phosphorylation of serine in PKB/AKT” value with PKB/AKT was “reduced”.
